The values that follow come from paper PMC3983056 (PLoS Pathogens, 2014).

For this data set, the system named is memory CD4 cells from HIV-infected patients. Briefly: Viability of primary memory CD4 cells (Cell TiterGlo, 6 days). Type of data set: cell-based, human. The settings on record: memory CD4 cells, tested RMD concentrations (5 and 20 nM, 4 hours), day 6. As for the experimental part: Cell viability was determined using a Cell TiterGlo reagent 6 days after the initiation of treatment and is expressed as a percentage of cell viability relative to control vehicle-treated memory CD4 cells from the same donors. The data represent mean +/− S.D. from three independent donors. (TIF) Click here for additional data file.
A general note: Cellular ATP, detected with luciferase, serves as a proxy for viable cell number.

Structures are written as SMILES.

For the compound `C/C=C1\NC(=O)[C@H]2CSSCC/C=C/[C@H](CC(=O)N[C@H](C(C)C)C(=O)N2)OC(=O)[C@H](C(C)C)NC1=O` [RMD, romidepsin], the cell viability entry was “did not substantially affect cell viability”.
